How the values were obtained:
Septoria tritici = assay: Test F: wheat leaf blotch, preventive spray on wheat seedlings, visual disease rating; type: in vivo; conditions: Zymoseptoria tritici, 100 = 100% disease control, 0 = no disease control relative to the controls
From the text: (§1) A hyphen (-) indicates no test results.

[1] = tested on: Puccinia recondita f sp. tritici; assay: Test L (L1-L5): wheat leaf rust, Compound 81 alone and in mixtures, observed and Colby expected control; type: in vivo; conditions: for Test L4 Obsd, disease control rating / Test L5 Obsd, disease control rating: wheat leaf rust
[2] = tested on: Puccinia recondita f. sp. tritici; assay: Test H: wheat leaf rust, preventive spray on wheat seedlings, visual disease rating; conditions: read-out: Test H rating (disease control), wheat leaf rust, sprayed the day before inoculation; 100 = 100% disease control, 0 = no disease control
[3] = tested on: Puccinia recondita f. sp. tritici; assay: Test G: wheat leaf rust, spray after inoculation (curative) on wheat seedlings, visual disease rating; type: in vivo; conditions: sprayed after inoculation, 100 = 100% disease control, 0 = no disease control
From the text: as §1

For `Cc1nn(C)c(Nc2c(F)cc(Cl)cc2F)c1-c1ccc(F)cc1Cl` [Compound 81, N-(4-chloro-2,6-difluorophenyl)-4-(2-chloro-4-fluorophenyl)-1,3-dimethyl-1H-pyrazole-5-amine], the pest or weed control at 200 µg/mL (Septoria tritici) was 100%, the “Test L1 Obsd” value ([1]; Compound 81 1 ppm alone) was 88% and the “Test L2 Obsd” value ([1]; Compound 81 1 ppm alone) was 9%. For the same compound, the “Test L3 Obsd” value ([1]; Compound 81 1 ppm alone) was 9%, the “Test L1 Obsd” value ([1]; Compound 81 2 ppm alone) was 68% and the “Test L2 Obsd” value ([1]; Compound 81 2 ppm alone) was 27%. For the same compound, the “Test L3 Obsd” value ([1]; Compound 81 2 ppm alone) was 9%, the “Test L1 Obsd” value ([1]; Compound 81 5 ppm alone) was 91% and the “Test L2 Obsd” value ([1]; Compound 81 5 ppm alone) was 74%. The “Test L3 Obsd” value ([1]; Compound 81 5 ppm alone) was 41%, the “Test L1 Obsd” value ([1]; Compound 81 10 ppm alone) was 98% and the “Test L2 Obsd” value ([1]; Compound 81 10 ppm alone) was 91%. The “Test L3 Obsd” value ([1]; Compound 81 10 ppm alone) was 88%, the “Test L4 Obsd, disease control rating” value ([1]; Compound 81 1 ppm alone) was 0% and the “Test L5 Obsd, disease control rating” value ([1]; Compound 81 1 ppm alone) was 18%. The “Test L4 Obsd, disease control rating” value ([1]; Compound 81 2 ppm alone) was 27%, the “Test L5 Obsd, disease control rating” value ([1]; Compound 81 2 ppm alone) was 27% and the “Test L4 Obsd, disease control rating” value ([1]; Compound 81 5 ppm alone) was 68%. The “Test L5 Obsd, disease control rating” value ([1]; Compound 81 5 ppm alone) was 55%, the “Test L4 Obsd, disease control rating” value ([1]; Compound 81 10 ppm alone) was 88% and the “Test L5 Obsd, disease control rating” value ([1]; Compound 81 10 ppm alone) was 82%. The pest or weed control at 200 µg/mL [2] was 100% and the pest or weed control at 200 µg/mL [3] was 99%.
